# Source: publication PMC8512147, “Multifunctional Small Molecules as Potential Anti-Alzheimer’s Disease Agents” (Molecules, 2021)
# How the values were obtained:
# [1] = Radical scavenging activity, DPPH method; type: biochemical; conditions: MeOH, 30 min, r.t., mean ± SD of 3 independent experiments
# Excerpt: Commercial ferulic acid (FA) and all the newly synthesized compounds 1a–e were studied for their radical scavenging activity, following the protocol previously reported. The activity of each compound is expressed as EC50 and is related to its interaction with the free stable radical 2,2-diphenyl-1-picrylhydrazyl (DPPH•).
# For the physicochemical and biological studies, analytical grade reagents and solvents were supplied by Sigma-Aldrich (St. Louis, MO, USA), Fluka (Buchs, Switzerland) and Acros (Geel, Belgium). They were used as received without any purification. The antioxidant activity assay was performed in a quartz cell of 1 cm path length with a Perkin-Elmer Lambda 35 UV–Vis spectrophotometer equipped with a temperature programmer PTP1+1 Peltier System (T = 25.0 ± 0.1 °C).
# Compounds were evaluated for their radical scavenging activity by the Blois method using DPPH (2,2-diphenyl-1-picrylhydrazyl), a stable free-radical. It absorbs in methanol solution at 517–520 nm and it is a scavenger for other radicals converting itself in the reduced form DPPHH. The assay consists of preparing solutions of increasing concentration of each compound starting from a stock solution (2–3 × 10^−4 M), adding to them 2.5 mL DPPH (0.002% in MeOH, 50–100 µM) and the necessary volume of MeOH to reach the final volume 3.5 mL for each sample. The control sample was made up of DPPH and MeOH. Solutions were protected from light at r.t. for 30 min and then absorbance was measured at 517 nm with a Perkin Elmer Lambda 35 UV–Vis spectrophotometer, using methanolic solution as the blank in the other cell. All the studied compounds have good solubility in MeOH, so their solutions could be prepared. The assay was repeated three times for all compounds and the antioxidant activity, expressed as EC50, was calculated by Equation (1). %AA = ((ADPPH − Asample)/ADPPH) × 100,(1)
# [2] = Protonation constants by pH-potentiometric / UV–Vis spectrophotometric titration; type: physicochemical; conditions: pH 7.4, CL = 10^−5 M
# Description: As concerns the metal chelation studies, potassium hydrogen phthalate (C8H5KO4, p.a.) was acquired from BDH, whereas dimethylsulfoxide (DMSO, dried, p.a.) and potassium chloride (KCl, p.a.) were supplied by Sigma-Aldrich. Aqueous solutions of metal ions were prepared starting from 1000 ppm standards (Titrisol, Sigma-Aldrich), to obtain solutions FeCl3 0.018 M and CuCl2 0.015 M. The metal content of solutions was evaluated by atomic absorption. Iron stock solution was prepared with an excess of acid chloride to avoid hydrolysis and its concentration in HCl was determined by the usual standard-addition method using 0.1M HCl (Titrisol). The 0.1M HCl solution, used in calibration of the glass electrode and in spectrophotometric titrations, was prepared from a Titrisol ampoule. […]
# The spectrophotometric measurements were carried out in a 250–450 nm wavelength range at pH ca. 2.5–11.8. Under the stated experimental conditions, the pKw value (14.27) was determined and subsequently used in the computations. […] The metal hydrolysis model was determined under the defined experimental conditions (I = 0.1 M KCl, 20% w/w DMSO/H2O, T = 25.0 ± 0.1 °C) and the following values of stability constants were included in the fitting of experimental data towards the equilibrium models related to the Fe^3+/L and Cu^2+/L systems: log β (FeH-2) = −6.78, log β (FeH-3) = −10.78; log β (Cu2H-2) = −9.94. […]
# [3] = Cu^2+ complexation, potentiometric / spectrophotometric titration; type: physicochemical; conditions: for log β (CumHhLl), species (1–12) / log β (CumHhLl), species (101): UV–Vis (1a, 1d); for pM (Cu^2+), pM = −log [M]: pH 7.4, CL/CM = 10, CM = 10^−6 M
# Excerpt: The chelating ability of FA and of selected compounds 1a and 1d was studied by using the same experimental techniques (potentiometry, UV–Vis spectrophotometry) and experimental medium used for the titration of the ligand alone (20% w/w DMSO/water).
# Alterations in the deprotonation profiles of the ligand titration curves due to the presence of the metal ions are evident in Figure 2, since the curves for the M/L systems appear well below that of FA for a > −1 (M = Fe) or a > 0 (M = Cu). This evidence supports the formation of metal complexes with the deprotonated (L^−) and mono-protonated (HL) forms of the ligand, whose stability order (Fe > Cu) follows the expected trend. Equilibrium models obtained from the fitting analysis of the potentiometric curves (M = Fe, Cu) and the UV–Vis spectral data (M = Fe, Cu) are reported in Table 2.
# Both compounds 1a and 1d have similar chelating capacities towards iron and copper, which are also analogous to those of FA.
# As concerns the metal chelation studies, potassium hydrogen phthalate (C8H5KO4, p.a.) was acquired from BDH, whereas dimethylsulfoxide (DMSO, dried, p.a.) and potassium chloride (KCl, p.a.) were supplied by Sigma-Aldrich. Aqueous solutions of metal ions were prepared starting from 1000 ppm standards (Titrisol, Sigma-Aldrich), to obtain solutions FeCl3 0.018 M and CuCl2 0.015 M. The metal content of solutions was evaluated by atomic absorption. Iron stock solution was prepared with an excess of acid chloride to avoid hydrolysis and its concentration in HCl was determined by the usual standard-addition method using 0.1M HCl (Titrisol). The 0.1M HCl solution, used in calibration of the glass electrode and in spectrophotometric titrations, was prepared from a Titrisol ampoule. The titrant was prepared from carbonate free commercial concentrate (Titrisol, KOH 0.1 M ampoules). The KOH solution was standardized by titration with a solution of potassium hydrogen phthalate using Gran’s method and it was rejected when the percentage of carbonate was greater than 0.5% of the total amount of base. The potentiometric studies were performed with an automated potentiometric apparatus controlled by PASAT program and containing a Crison micropH 2002 millivoltmeter, a Crison microBu 2031 burette and a Haake thermostatic bath (T = 25.0 ± 0.1 °C). The spectrophotometric titrations were carried out with a Perkin-Elmer Lambda 35 spectrophotometer.
# Both glass and Ag/AgCl reference electrodes were previously conditioned in different DMSO/H2O mixtures of increasing DMSO % concentration and the response of the glass electrode was evaluated by strong acid–strong base (HCl/KOH) calibrations with the determination of the Nernst parameters by Gran’s method. […] The spectrophotometric measurements were carried out in a 250–450 nm wavelength range at pH ca. 2.5–11.8. Under the stated experimental conditions, the pKw value (14.27) was determined and subsequently used in the computations. The stepwise protonation constants of the ligands, Ki = [HiL]/[Hi-1L][H], and the overall metal complex stability constants, β (MmHhLl) = [MmHhLl]/[M]^m[H]^h[L]^l, were calculated by fitting the pH-potentiometric and spectrophotometric data with, respectively, the Hyperquad 2008 [41] and Psequad programs. The metal hydrolysis model was determined under the defined experimental conditions (I = 0.1 M KCl, 20% w/w DMSO/H2O, T = 25.0 ± 0.1 °C) and the following values of stability constants were included in the fitting of experimental data towards the equilibrium models related to the Fe^3+/L and Cu^2+/L systems: log β (FeH-2) = −6.78, log β (FeH-3) = −10.78; log β (Cu2H-2) = −9.94. The species distribution curves were obtained with the Hyss program.
# [4] = T = 25.0 ± 0.1 °C, I = 0.1 M KCl, 20% w/w DMSO/water, pH-potentiometric (FA)
EC50 [1],predominant species neutral HL at physiological conditions [2],"log β (CumHhLl), species (1–21) ([3]; T = 25.0 ± 0.1 °C, I = 0.1 M KCl, 20% w/w DMSO/water, UV–Vis spectrophotometric data)","log β (CumHhLl), species (1–12) [3, 4]","log β (CumHhLl), species (101) [3, 4]","pM (Cu^2+), pM = −log [M] [3]",melting point,"log β (CumHhLl), species (102) ([3]; T = 25.0 ± 0.1 °C, I = 0.1 M KCl, 20% w/w DMSO/water, pH-potentiometric (FA), UV–Vis (1d))",Structure (SMILES)
34 ± 1 µM,96%,−13.16(7),1.12(5),6.27(7),6.3,58 °C,–,"COc1cc(/C=C/C(=O)NOCc2ccccc2OC)ccc1O [Compound 1a, (E)-3-(4-hydroxy-3-methoxyphenyl)-N-((2-methoxybenzyl)oxy)acrylamide]"
33 ± 1 µM,97%,–,2.20(8),7.49(7),7.0,47 to 48 °C,12.14(7),"COc1cc(/C=C/C(=O)NOCc2cccc(Cl)c2)ccc1O [Compound 1d, (E)-N-((3-chlorobenzyl)oxy)-3-(4-hydroxy-3-methoxyphenyl)acrylamide]"
